# Measured values published in patent US20080292586A1 (priority 2005, published 2008).
# How the values were obtained:
# [1] = test system: H5N1 Avian influenza virus (A/VN/1203/04); test: microbe, parasite or virus in culture; assay type: cell-based
# MDBK cells = conditions: bovine
# [2] = Influenza A virus, H5N1, MDBK, 72 h
smiles,measurement,setting,value
NC(=O)c1ncn([C@@H]2O[C@H](CO)[C@@H](O)[C@H]2O)n1 [Ribavirin],IC25,[1],1.01 µg/mL
same,IC50,"[1]; Influenza A virus, H5N1, MDBK",1.96 µg/mL
same,IC50,[1]; [2],1.69 µg/mL
same,IC90,[1]; [2],5.01 µg/mL
same,cytotoxicity profile (in words),MDBK cells,toxic at concentrations above that which protected 80% of cells from H5N1 infection
